These results are taken from patent publication US11351157B2, “Treatment of immunological disease using berberine nanoparticles” (Icahn School of Medicine at Mount Sinai, priority 2016, dated 2022).

Like-named read-outs stand apart in the source and are kept apart here.

For one series, the system named is peanut-specific IgE. Briefly: Peanut-specific IgE in serum of peanut-sensitized mice (ELISA). Format: in vivo, C3H/HeJ mice. As to conditions: two oral courses, vs Sham. An excerpt: Six-week-old female C3H/HeJ mice purchased from the Jackson Laboratory (Bar Harbor, Me.) were maintained in pathogen-free facilities at the Mount Sinai vivarium on peanut-free chow according to standard guidelines for the care and use of animals. Institute of Laboratory Animal Resources Commission of Life Sciences NRC. Guide for the Care and Use of Laboratory Animals: National Academic Press, 1996. […] Some mice were sensitized to egg white (EW) using a similar protocol. Subsequently, daily oral treatment with BBR-nanoparticles was administered in 4-week and 2-week phases with an interval of 2 weeks at times indicated. Mice were periodically challenged with systemic and oral challenges at approximately 6 week intervals, as indicated. In some experiments mice were given intraperitoneal injections of 100 μg of anti-CD8 or anti-IFNγ antibodies, one day prior and then twice weekly during treatment period. Microtitre plates were coated with defatted protein extracts of peanut or egg white (sample wells) and rat anti-mouse IgE (reference wells) and held overnight at 4° C. After washing three times, plates were blocked for 2 hours at room temperature with 2% BSA-PBS. After three washes plates were incubated with diluted serum samples overnight at 4° C. […] Total IgA, peanut specific IgG1 and IgG2a levels were measured as described in a previous publication. […]
In general terms: ELISA stands for enzyme-linked immunosorbent assay.

Another series relates to human B cells. As to conditions: cited from earlier work; for IgE production by human B cells: human B cells / U266 cells.
The conditions of series [1]: in vivo; cited from earlier work.
A further series has as its system P-glycoprotein. As to conditions: mediated by P-glycoprotein; cited from earlier work.
In series [2] the test system is peripheral blood mononuclear cells (PBMCs). As to conditions: cited from earlier work; for IgE production by PBMCs: PBMCs from patients with food allergy.
Series [3] addresses T1, mIgE (membrane-bound IgE) (Homo sapiens, UniProt P01854).
T1 construct: host or cells: endogenous mIgE on IgE-lineage B cells of human trial subjects
As to conditions: clinical trials; cited from earlier work.

T1 sequence (P01854 whole entry): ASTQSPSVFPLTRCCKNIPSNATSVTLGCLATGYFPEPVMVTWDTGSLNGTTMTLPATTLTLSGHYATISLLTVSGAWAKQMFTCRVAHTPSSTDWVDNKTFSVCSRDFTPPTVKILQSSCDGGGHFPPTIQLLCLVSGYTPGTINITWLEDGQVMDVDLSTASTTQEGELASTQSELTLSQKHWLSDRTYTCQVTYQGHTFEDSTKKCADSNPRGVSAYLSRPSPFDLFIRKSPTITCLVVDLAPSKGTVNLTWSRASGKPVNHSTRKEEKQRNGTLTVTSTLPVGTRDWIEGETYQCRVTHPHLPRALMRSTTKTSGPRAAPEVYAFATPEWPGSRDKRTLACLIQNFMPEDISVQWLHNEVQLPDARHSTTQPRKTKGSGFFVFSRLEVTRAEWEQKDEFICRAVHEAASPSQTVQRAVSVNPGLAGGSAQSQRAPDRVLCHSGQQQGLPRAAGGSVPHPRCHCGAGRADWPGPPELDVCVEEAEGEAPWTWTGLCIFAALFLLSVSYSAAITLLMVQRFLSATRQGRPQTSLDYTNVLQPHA
T1 sequence (P11912 33-226 partner): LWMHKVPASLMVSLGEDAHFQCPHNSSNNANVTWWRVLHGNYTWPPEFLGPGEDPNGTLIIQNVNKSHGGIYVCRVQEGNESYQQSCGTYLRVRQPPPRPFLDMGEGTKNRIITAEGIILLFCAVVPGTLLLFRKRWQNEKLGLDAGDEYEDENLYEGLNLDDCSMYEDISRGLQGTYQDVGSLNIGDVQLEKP
T1 sequence (P40259 29-229 partner): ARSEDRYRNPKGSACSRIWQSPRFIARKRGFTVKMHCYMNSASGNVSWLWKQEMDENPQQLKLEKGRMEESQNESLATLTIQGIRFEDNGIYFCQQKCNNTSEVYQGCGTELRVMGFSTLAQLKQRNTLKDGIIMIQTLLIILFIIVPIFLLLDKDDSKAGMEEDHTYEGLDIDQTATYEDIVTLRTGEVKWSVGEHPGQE

For `COc1ccc2cc3[n+](cc2c1OC)CCc1cc2c(cc1-3)OCO2` [berberine, Berberine], the “Peanut-specific IgE” value in the series on peanut-specific IgE is “not”. In the series with human B cells, the “IC50 of IgE production” value was 0.1962 µg/mL and the “IgE production by human B cells” value is “significant reduction”. Besides, the “IgE production by human B cells” value with human B cells (listed as Berberine) is recorded as “significantly reduced”. In series [1], the “Berberine taken up by the gastrointestinal tract” value was “less than 5%” and the Bioavailability result was “less than 1%”. The “Rate of efflux from intestinal epithelial cells” value in the series on P-glycoprotein was “up to 95%”. Besides, in series [2], the “IgE production by PBMCs” value is listed as “significant reduction” and the “Cytotoxicity of inhibition in PBMCs” value was “non-cytotoxic”. In series [2] (listed as Berberine), the “IgE production by PBMCs” value was “significantly reduced”.

B1: quilizumab: mIgE (membrane-bound IgE) targeting antibody studied in clinical trials (antibody, chains of the INN, looked up, V domains shown)
VH: EVQLVESGGGLVQPGGSLRLSCAASGFTFSDYGIAWVRQAPGKGLEWVAFISDLAYTIYYADTVTGRFTISRDNSKNTLYLQMNSLRAEDTAVYYCARDNWDAMDYWGQGTLVTVSS
VL: DIQMTQSPSSLSASVGDRVTITCRSSQSLVHNNANTYLHWYQQKPGKAPKLLIYKVSNRFSGVPSRFSGSGSGTDFTLTISSLQPEDFATYYCSQNTLVPWTFGQGTKVEIK
Consider B1, for which, in series [3], the “Clinical benefit in early human studies” value is “without any significant clinical benefit” and the “IgE reduction in early human studies” value is “only moderate IgE reduction”.
